Test results from US8466104B2, “Therapeutically active alpha MSH analogues” (AbbVie Inc., priority 2005, dated 2013).
Where two headings read alike, the source gives them in different places.

What was measured:
[1] = tested on: LPS induced TNF-α in plasma; assay: Inhibition of LPS induced TNFa production in rats in vivo (experimental setup 2); parameters: species or system rat; conditions: for dose at which the maximal inhibitory effect on TNF-a is achieved: doses 50, 200, 1000 μg/kg tested
Description: Inhibition of LPS Induced TNFa Production in Rats In Vivo
Experimental animals. Female Wistar rats (220-240 g) are obtained from the Charles River, Sulzfeld, Germany, and housed in a temperature- (22-24° C.) and moisture-controlled (40-70%) room with a 12 h light-dark cycle (light on from 6:00 A.M. to 6:00 P.M.). The rats are maintained on a standard rodent diet with 140 mmol/kg of sodium, 275 mmol/kg potassium and 23% protein (Altromin International, Lage, Germany) and have free access to water.
Animal preparation. […] After instrumentation, the animals are housed individually for 7-10 days until the day of the experiment.
Experimental protocol. Prior to the experiments all rats are adapted to the restraining cage used for the experiments by training them for two periods of two hours each. On the day of the experiment, the animal is transferred to a restraining cage, and an intravenous infusion of vehicle solution containing 150 mM glucose is started. The infusion rate is 0.5 ml/h throughout the experiment. After a short adaptation period, infusion of lipopolysaccharide (LPS) is started. LPS (E coli serotype 0127 B8, L 3129, Sigma, St. Louis, USA) is given at a dose of 4 mg/kg body weight delivered as an i.v. infusion over 1 hour. Arterial blood samples of 0.3 ml are taken 60, 90, and 120 minutes after start of the LPS infusion and replaced immediately with heparinized blood from a normal donor rat.
In addition to LPS infusion all rats are treated with a bolus injection of: • Vehicle (0.5 mL isotonic saline); • a-MSH in one of the following doses: 50 μg/kg bw; 200 μg/kg/bw or 1000 μg/kg bw; • Test compound in one of the following doses: 50 μg/kg bw; 200 μg/kg/bw or 1000 μg/kg bw.
Measurement of TNF-α in plasma: The blood samples are collected in a prechilled test tube with 0.5 mM EDTA, pH 7.4, and 20×10^6 IU/ml aprotinin. After centrifugation at 4° C., plasma samples are transferred to pre-chilled test tubes and stored at −20° C. for later measurements of TNF-α. TNF-α in plasma is determined by an ELISA (Biotrak, Amersham, UK).
Statistical analyses. Results are presented as means±SE. A two-way ANOVA for repeated measures is used to test for differences between groups. In case of P<0.05, the differences between corresponding periods are evaluated by unpaired t-tests with Bonferroni's correction of the level of significance.

[2] = tested on: LPS induced TNF-α production by human leucocytes (PBMC); assay: Inhibition of LPS induced TNF-a production by human leucocytes in vitro (experimental setup 1); format: cell-based; conditions: human leucocyte suspension
Description: Inhibition of LPS Induced TNF-a Production by Human Leucocytes In Vitro
20 mL human blood is collected in vacutainer tubes containing EDTA. PBMC is isolated using Ficoll-Paque Plus as in Amersham's Instruction 71-7167-00 AD, 2002-06. PBMC is counted using Tryphan Blue Solution (Sigma) and incubated in RPMI 1640, (Applichem), supplemented with 10 mM Hepes (Sigma), 2 mM L-glutamin (Sigma), 0.1% BSA (Sigma) and 50U/50 μg/mL Penicillin/Streptomycin (Sigma) in the concentration 5×10^5 cells/mL. The isolated PBMC is incubated in a humidified 5% CO2, 95% air atmosphere, at 37° C., in 24 well flat-bottomed plates (Corning Incorporated) with medium, 10 ng LPS/mL (Sigma), and test compound. After 18 hours the samples are centrifuged, and TNF-α in the supernatants is measured using Tumour Necrosis Factor Alpha [(h)TNF-α] from Human Biotrak ELISA System (Amersham).
The samples are incubated as following per donor: • PBMC's in RPMI (Time Control) • PBMC's with 10 ng LPS/mL (Vehicle) • PBMC's, 10 ng LPS/mL, 10^−17M a-MSH or a-MSH analogue • PBMC's, 10 ng LPS/mL, 10^−15M a-MSH or a-MSH analogue • PBMC's, 10 ng LPS/mL, 10^−13M a-MSH or a-MSH analogue • PBMC's, 10 ng LPS/mL, 10^−11M a-MSH or a-MSH analogue • PBMC's, 10 ng LPS/mL, 10^−9M a-MSH or a-MSH analogue • PBMC's, 10 ng LPS/mL, 10^−7M a-MSH or a-MSH analogue
All samples are diluted from an initial stock solution between 1.4×10^−4M and 1.8×10^−3M. All solutions are handled in BSA coated vials in order to protect against binding of the compound to the surface of the vials.
Data is presented as mean±SE. The effect of test compounds on LPS induced TNF-a liberation is expressed as percentage of the TNF-a accumulation in the LPS-vehicle group. All comparisons are analysed with Student's unpaired t-test. Differences are considered significant at probability levels (p) of 0.05.

Substance | reduction of TNF-a accumulation during iv infusion of LPS [1] | inhibitory effect on plasma TNF-a compared to native a-MSH ([1]; iv LPS infusion) | dose at which the maximal inhibitory effect on TNF-a is achieved ([1]; iv LPS infusion) [μg/kg body weight] | inhibitory effect on plasma TNF-a compared to native a-MSH ([1]; iv LPS infusion, listed as SEQ ID NO: 2*) | reduction of TNF-a accumulation during iv infusion of LPS ([1]; listed as SEQ ID NO: 2*) | dose dependent reduction of LPS induced TNF-a accumulation [2] | inhibitory effect on TNF-a accumulation compared to native a-MSH [2] | inhibitory effect on plasma TNF-a compared to native a-MSH ([1]; iv LPS infusion, listed as SEQ ID NO: 17*) | reduction of TNF-a accumulation during iv infusion of LPS ([1]; listed as SEQ ID NO: 17*) | TNF-a concentration in plasma, % of the maximal response (LPS-Vehicle) ([1]; iv LPS infusion, 200 μg/kg body weight iv, 120 minutes after initiation of LPS infusion) [%] | inhibitory effect on plasma TNF-a compared to native a-MSH ([1]; iv LPS infusion, listed as SEQ ID NO: 13*) | reduction of TNF-a accumulation during iv infusion of LPS ([1]; listed as SEQ ID NO: 13*) | inhibitory effect on plasma TNF-a compared to native a-MSH ([1]; iv LPS infusion, listed as SEQ ID NO: 3*) | reduction of TNF-a accumulation during iv infusion of LPS ([1]; listed as SEQ ID NO: 3*)
Ac-Glu-Glu-Glu-Glu-Glu-Glu-Ser-Tyr-Ser-Met-Glu-His-Phe-Arg-Trp-Gly-Lys-Pro-Val-NH2 (Ac-EEEEEESYSMEHFRWGKPV-NH2) [a-MSH analogue #6] | reduce TNF-a accumulation | markedly more pronounced | 200 | higher degree | significantly inhibit | dose dependently reduce | markedly more pronounced | – | – | – | – | – | – | –
Ac-Lys-Lys-Lys-Lys-Lys-Lys-Ser-Ser-Ile-Ile-Ser-His-(D-Phe)-Arg-Trp-Gly-Lys-Pro-Val-NH2 (KKKKKKSSIISHFRWGKPV; HELM PEPTIDE1{[ac].K.K.K.K.K.K.S.S.I.I.S.H.[dF].R.W.G.K.P.V.[am]}$$$$V2.0; SMILES CC[C@H](C)[C@H](NC(=O)[C@H](CO)NC(=O)[C@H](CO)NC(=O)[C@H](CCCCN)NC(=O)[C@H](CCCCN)NC(=O)[C@H](CCCCN)NC(=O)[C@H](CCCCN)NC(=O)[C@H](CCCCN)NC(=O)[C@H](CCCCN)NC(C)=O)C(=O)N[C@H](C(=O)N[C@@H](CO)C(=O)N[C@@H](Cc1c[nH]cn1)C(=O)N[C@H](Cc1ccccc1)C(=O)N[C@@H](CCCNC(=N)N)C(=O)N[C@@H](Cc1c[nH]c2ccccc12)C(=O)NCC(=O)N[C@@H](CCCCN)C(=O)N1CCC[C@H]1C(=O)N[C@H](C(N)=O)C(C)C)[C@@H](C)CC) [a-MSH analogue #5] | reduce TNF-a accumulation | markedly more pronounced | 200 | – | – | dose dependently reduce | markedly more pronounced | higher degree | significantly inhibit | – | – | – | – | –
Ac-Lys-Lys-Lys-Lys-Lys-Lys-Ser-Ser-Ile-Ile-Ser-His-Phe-Arg-Trp-Gly-Lys-Pro-Val-NH2 (Ac-KKKKKKSSIISHFRWGKPV-NH2) [a-MSH analogue #4] | reduce TNF-a accumulation | markedly more pronounced | 200 | – | – | dose dependently reduce | markedly more pronounced | – | – | 12±2 | higher degree | significantly inhibit | – | –
Ac-Lys-Lys-Lys-Lys-Lys-Lys-Ser-Tyr-Ser-Met-Glu-His-Phe-Arg-Trp-Gly-Lys-Pro-(D-Val)-NH2 (KKKKKKSYSMEHFRWGKPV; HELM PEPTIDE1{[ac].K.K.K.K.K.K.S.Y.S.M.E.H.F.R.W.G.K.P.[dV].[am]}$$$$V2.0; SMILES CSCC[C@H](NC(=O)[C@H](CO)NC(=O)[C@H](Cc1ccc(O)cc1)NC(=O)[C@H](CO)NC(=O)[C@H](CCCCN)NC(=O)[C@H](CCCCN)NC(=O)[C@H](CCCCN)NC(=O)[C@H](CCCCN)NC(=O)[C@H](CCCCN)NC(=O)[C@H](CCCCN)NC(C)=O)C(=O)N[C@@H](CCC(=O)O)C(=O)N[C@@H](Cc1c[nH]cn1)C(=O)N[C@@H](Cc1ccccc1)C(=O)N[C@@H](CCCNC(=N)N)C(=O)N[C@@H](Cc1c[nH]c2ccccc12)C(=O)NCC(=O)N[C@@H](CCCCN)C(=O)N1CCC[C@H]1C(=O)N[C@@H](C(N)=O)C(C)C) [a-MSH analogue #7] | reduce TNF-α accumulation | markedly more pronounced | 200 | – | – | dose dependently reduce | markedly more pronounced | – | – | – | – | – | higher degree | significantly inhibit
